Experimental data: US20130158111A1, “Compositions and Methods for Depleting Mutant p53” (Georgetown University, priority 2011, published 2013)

Columns and labels:
[1] = system: LNCap (wild-type p53) xenograft tumors; assay: Xenograft model, LNCap tumors, PEITC diet; type: in vivo, BALB/C nu/nu transgenic mice
Method: Briefly, 30 BALB/C nu/nu transgenic mice (purchased from Charles River) were randomized into two groups, and fed with powder diet AlN93 (purchased from Research Diets, Inc.) with or without addition of 5 μM PEITC compound (purchased from Sigma-Aldrich). After two weeks of feeding, two xenograft tumors each carrying […] in a volume of 100 μL were established by injection into both flanks of a mouse. Mice were continuously fed with diets with or without PEITC for additional 8 weeks before sacrifice. Diet intake and tumor volume were measured twice every week. Tumors were harvested at the end of bioassay for immunohistochemistry and immunoblot studies. […] Immunohistochemistry assays were carried out to examine the apoptotic markers, such as TUNEL, and anti-proliferation marker Ki67 in tumors from the PEITC-treated vs. untreated mice. This study provides the first in vivo evidence that mutant p53 can be depleted in tumors of mice fed PEITC-containing diet and its depletion seems to correlate with growth inhibition in the mutant p53 tumors.

HOP-92 (R175L) cell line = assay: Cell proliferation, HOP-92; type: cell-based; settings: Homo sapiens, 250 nM PEITC
Method: Next, the effect of PEITC exposure on tumor growth of the tumor cell lines expressing mutant or the WT p53 protein was examined. […] This hypersensitivity to PEITC being mediated through mutant p53 was next examined. The effect of PEITC on mda-mb-231 cells depleted of mutant p53 by >90% was compared to non-specific (NS) siRNA transfected cells as a control (FIG. 9B). […] Further the effect of PEITC treatment on the level of mutant p53 protein at lower doses was analyzed by western blot analysis (FIG. 9D).

p53 in H1299-143A cells = molecular target: T1, p53 in H1299-143A cells (Homo sapiens, UniProt P04637, V143A); assay: PEITC-induced p53 depletion in H1299-143A cells, mutant vs wild-type conformation; type: cell-based; settings: 20 μM PEITC, 24 h
T1 construct: expressed in transfected cells; host or cells: H1299-143A
Method: FIG. 2 depicts PEITC depleting p53 protein in human cancer cells with different p53 mutation but not in cells with wild-type p53. (A) Cell lines harboring mutant p53 were treated with 15 μM PEITC (MDA-MB-231, MDA-MB-468, and SCC-4) or 10 μM PEITC (DU145 and SW480) for the indicated times. (B) Cells with wild-type p53 were treated with 20 μM PEITC (HCT116, A549, and MCF-7) or 15 μM PEITC (MCF-10A) for the indicated times. […] H1299-175H cells are used as control. Both cells were treated with 20 μM PEITC for 24 h.

[2] = system: A549, H596, MCF-7, MDA-MB-231, MDA-MB-468, HCT116 and SW480 cells; assay: Caspase-3 colorimetric activity assay (apoptosis), mutant vs wild-type p53 cells; type: cell-based, Human; settings: PEITC 24 h; lung, breast and colon cell line sets
Method: Caspase-3 activity was measured by detection of the cleavage of a colorimetric caspase-3 substrate, N-acetyl-Asp-Glu-Val-Asp (DEVD)-p-nitroaniline, using an assay kit (R&D Systems, Inc., Minneapolis, Minn.). The assay was performed according to the instructions of the manufacturer. In brief, cells were treated with drugs for 24 h. The cells were collected and lysed in ice-cold lysis buffer provided by the manufacturer. The same amount of protein extracts (100-200 μg) were incubated in a reaction buffer containing N-acetyl-DEVD-p-nitroaniline at 37 gC for 2-4 h. The levels of the resulting proteolytic fragment p-nitroanilide were measured as optical density at 405 nm with a plate reader. The data represent the mean±SD of three independent experiments.
The role of p53 in the induction of apoptosis by ITCs is not well established and likely to be cell-specific. […] To examine this possibility, we assessed the cytotoxicity induced by PEITC in cancer cells containing either wild-type or mutant p53. Three sets of cell lines from lung, breast, and colon were used: A549 (wild-type p53) and H596 (mutant p53) lung cancer cells, MCF-7 (wild-type p53) and MDA-MB-231 and MDA-MB-468 (mutant p53) breast cancer cells, and HCT116 (wild-type p53) and SW480 (mutant p53) colon cancer cells. After treating with PEITC for 24 h, apoptosis was determined by caspase-3 activity assay.

SMILES: S=C=NCCc1ccccc1 [PEITC, phenethyl isothiocyanate]
- p53 level in tumors detected by immunoblot ([1]; LNCap tumors, PEITC diet): not in LNCap tumors
- tumor volume ([1]; LNCap xenograft, diet with 5 μM PEITC vs diet without PEITC, 8 weeks): significantly decreased
- inhibition at 0.25 µM (HOP-92 (R175L) cell line): 40%
- sensitivity to PEITC-induced p53 depletion, mutant conformation (37° C.) vs wild-type conformation (32.5° C.) (p53 in H1299-143A cells): more sensitive
- sensitivity of mutant p53 cancer cells vs wild-type cells to PEITC-induced apoptosis (caspase-3 activity) [2]: significantly more sensitive
